The subject of test [1] is healthy women in their 20's to 30's. As to conditions: 17 subjects, before vs after suctioning, Table 2 and FIG. 2. As to the method: (§1) In the verification test using this method, hydrogen mainly produced by the hydrogen generating device (an electrolytic hydrogen gas suction tool 100 which will be described later) is orally suctioned. More specifically, hydrogen generated by the hydrogen generatingor device 100 is suctioned by spontaneous breathing for approximately 10 minutes. The amount of hydrogen generated per minute is 8 cc per minute by electrolysis (4 cc of oxygen is also generated at the same time) and thus, 12 cc per minute of a gas mixture of oxygen/hydrogen is generated. This gas mixture is suctioned by spontaneous breathing. […]
By paying attention to a physiological reaction that a skin temperature of a distal end section (the forehead center part and a first knuckle-joint cushion side part of the index finger are measured this time) is changed in accordance with predominance of the sympathetic nervous activity, the change in the skin temperature is measured by a temperature sensor over time before and after drinking of the hydrogen solution. The temperature sensor body has an approximate size of a thickness of 1 mm and a diameter of 3 mm, and the change in the skin temperature is measured by a recorder in a wired manner from the sensor.

The test system is the same in test [2]. Particulars: 17 subjects, evaluation in score. Here is the method: as §1, with “breathing. Normally, since an adult suctions approximately 5 litters of air per minute under spontaneous breathing, assuming that all the generated gas mixture is suctioned, the gas mixture at 0.24% at the maximum (hydrogen 0.18%, oxygen 0.06%) is contained in an expiratory air.” for “breathing.”
(§2) For an action of the central nervous activity by hydrogen, a brain stress test utilized for the purpose of evaluating an activity degree and a stress degree of the brain is conducted, and the brain activity degree (degree of fatigue) is measured by a flicker device. Moreover, influences of a sight function, a skin sensibility function, a gravity balance function and the like are measured by a brain executive function meter. […]

For test [3] the test system is unchanged. As to conditions: 17 subjects, before vs after suctioning, Table 1 and FIG. 1. As to the method: (§3) In the verification test using this method, hydrogen mainly produced by the hydrogen generating device (an electrolytic hydrogen gas suction tool 100 which will be described later) is orally suctioned. More specifically, hydrogen generated by the hydrogen generatingor device 100 is suctioned by spontaneous breathing for approximately 10 minutes. The amount of hydrogen generated per minute is 8 cc per minute by electrolysis (4 cc of oxygen is also generated at the same time) and thus, 12 cc per minute of a gas mixture of oxygen/hydrogen is generated. This gas mixture is suctioned by spontaneous breathing. Normally, since an adult suctions approximately 5 litters of air per minute under spontaneous breathing, assuming that all the generated gas mixture is suctioned, the gas mixture at 0.24% at the maximum (hydrogen 0.18%, oxygen 0.06%) is contained in an expiratory air.
The subjects were 20 selected subjects, grouped into two groups, considering the ages and test time slots (morning and afternoon), and measurement was conducted for 10 subjects a day. […]

Test [4] shares this test system. As to conditions: 17 subjects, subjective five-grade evaluation, FIG. 6. As to the method: as §3
The subjects were 20 selected subjects, grouped into two groups, considering the ages and test time slots (morning and afternoon), and measurement was conducted for 10 subjects a day.
The testing method is as follows: • (1) In the main test, each subject should suction hydrogen. • (2) Tests/evaluations which will be described later shall be conducted for each subject while each subject is suctioning hydrogen, and by comparing/examining each evaluation before and after the suctioning, physiological effects by hydrogen is verified. • (3) For the subject who is sitting on a chair for measurement with his/her eyes open, a test manager or a test cooperator prepares a hydrogen generating tool (not generating hydrogen) which is a control and assigns it to the subject. The subject shall put his/her mouth to a nozzle 5 of an electrolytic hydrogen gas suction tool 100 which is this hydrogen generating device (see FIGS. 7 to 10) or a tube portion connected to that and normally breath for approximately 10 minutes. After that, each measurement which will be described later is conducted at any time. After that, the subject puts his/her mouth to the nozzle 5 of the electrolytic hydrogen gas suction tool 100 which generates hydrogen or the tube portion connected to that as a subject sample and suctions hydrogen for 10 minutes similarly. After that, each measurement is made. If abnormality is found in the subject while the subject is suctioning hydrogen, the test manager or the test cooperator shall immediately stop the suctioning. When the suctioning of hydrogen is stopped, the practitioner shall record the fact of the stop and suctioning time in a clinical report. • (4) The test manager shall check if a harmful phenomenon has occurred in the subject during the test or not.
For an action of the central nervous activity by hydrogen, a brain stress test utilized for the purpose of evaluating an activity degree and a stress degree of the brain is conducted, and the brain activity degree (degree of fatigue) is measured by a flicker device. Moreover, influences of a sight function, a skin sensibility function, a gravity balance function and the like are measured by a brain executive function meter. For a change in emotional feelings, an ability of concentration, sleepiness and the like are examined by interview by using a multilateral emotional state scale. The respective measurements will be described in brief below.

The test system is the same in test [5]. Particulars: 17 subjects, Table 4 and FIG. 5. As to the method:
as §1, §2
Actions to the brain executive functions (right-and-left cognitive function, sight function, short-time memory, skin sensibility, gravity balance and the like are comprehensively analyzed) are analyzed (measurement instrument: Brain executive function meter by Anima).

In the case of `[HH]` [hydrogen], the “peripheral skin temperature, change by hydrogen suctioning” value in test [1] is “significantly raised”. The “brain stress, change by hydrogen suctioning” value in test [2] (Table 3 and FIG. 3) is “significantly decreased”. Besides, the “brain rotation degree score, change by hydrogen suctioning” value in test [2] (Table 3 and FIG. 4) was “significantly raised”. In test [3], the “pupil contraction rate (CR value), change by hydrogen suctioning” value was “significantly increased”. Besides, in test [4], the “fatigue feeling, change by hydrogen suctioning” value is on record as “decreased”; the “feeling of concentration, change by hydrogen suctioning” value is “significantly raised”; the “feeling of exhilarating, change by hydrogen suctioning” value is given as “significantly raised”; the “feeling of refreshing, change by hydrogen suctioning” value is listed as “significantly raised”. Further, the “spontaneous stress, change by hydrogen suctioning” value in test [4] is “decreased”. Besides, in test [5], the “right-and-left cognitive function, change by hydrogen suctioning” value is given as “remarkable improvement” and the “short-term memory, change by hydrogen suctioning” value was “remarkable improvement”.
